From EP0554004A2, “Cephem compounds and antibacterial agents” (KATAYAMA SEIYAKUSYO CO. Ltd., priority 1992, dated 1993)
Converted amounts (≈) assume the structure as drawn.

Assays:
Assay type in all cases: cell-based
S. aureus Smith = assay: MIC against standard strains (Test Example 3); settings: Staphylococcus aureus; S. aureus Smith (Test Example 3); read-out: MIC
Description: (§1) By using each test strain cultured overnight at 37°C in a Muller-Hinton broth, there was prepared a bacterial solution with a bacterial cell population of 1 x 10^6 CFU/mi of the same bouillon. The bacterial solution was inoculated into the Muller-Hinton agar media each containing respectively one test agent and, after overnight incubation at 37°C, the minimum concentration that inhibited growth of the bacteria was determined and shown as MIC also in Table 1.
(§2) The minimum growth inhibitory concentration was determined for each of the 21 standard strains shown in Table 3, according to the same method as used in Test Example 1.
(§3) In the test, FMOX (flomoxef), CTM (cefotiam) and CEZ (cefazolin) were used as control agents.

C. freundii ATCC8090 = assay: MIC against standard strains (Test Example 3); settings: Citrobacter freundii; C. freundii ATCC8090 (Test Example 3); read-out: MIC
Description: as §1, §2, §3

A. calcoaceticos T59 = assay: MIC against standard strains (Test Example 3); settings: A. calcoaceticos T59 (Test Example 3); read-out: MIC
Description: as §1, §2, §3

M. luteus ATCC 9341 = assay: MIC against standard strains (Test Example 3); settings: Micrococcus luteus, ATCC9341; M. luteus ATCC 9341 (Test Example 3); read-out: MIC
Description: as §1, §2, §3

K. pneumoniae IFO3317 = assay: MIC against standard strains (Test Example 3); settings: Klebsiella pneumoniae; K. pneumoniae IFO3317 (Test Example 3); read-out: MIC
Description: as §1, §2, §3

S. marcescens IAM1184 = assay: MIC against standard strains (Test Example 3); settings: Serratia marcescens; S. marcescens IAM1184 (Test Example 3); read-out: MIC
Description: as §1, §2, §3

B. subtilis ATCC6633 = assay: MIC against standard strains (Test Example 3); settings: Bacillus subtilis; B. subtilis ATCC6633 (Test Example 3); read-out: MIC
Description: as §1, §2, §3

A. faecalis ATCC3750 = assay: MIC against standard strains (Test Example 3); settings: Alcaligenes faecalis; A. faecalis ATCC3750 (Test Example 3); read-out: MIC
Description: as §1, §2, §3

M. Morganii IFO3848 = assay: MIC against standard strains (Test Example 3); settings: Morganella morganii; M. Morganii IFO3848 (Test Example 3); read-out: MIC
Description: as §1, §2, §3

E. coli NIHJ JC-2 = assay: MIC against standard strains (Test Example 3); settings: Escherichia coli, NIHJJC2; E. coli NIHJ JC-2 (Test Example 3); read-out: MIC
Description: as §1, §2, §3

P. mirabilis IFO3849 = assay: MIC against standard strains (Test Example 3); settings: Proteus mirabilis; P. mirabilis IFO3849 (Test Example 3); read-out: MIC
Description: as §1, §2, §3

S. aureus 167 = assay: MIC against standard strains (Test Example 3); settings: Staphylococcus aureus; S. aureus 167 (MRSA) (Test Example 3); read-out: MIC
Description: as §1, §2, §3

E. coli CSH2 (RE45) = assay: MIC against standard strains (Test Example 3); settings: Escherichia coli
Description: as §1, §2, §3

E. cloacae ATCC13407 = assay: MIC against standard strains (Test Example 3); settings: Enterobacter cloacae; E. cloacae ATCC13407 (Test Example 3); read-out: MIC
Description: as §1, §2, §3

S. aureus 195 = assay: MIC against standard strains (Test Example 3); settings: Staphylococcus aureus; S. aureus 195 (MRSA) (Test Example 3); read-out: MIC
Description: as §1, §2, §3

K. pneumoniae No. 42 = assay: MIC against standard strains (Test Example 3); settings: Klebsiella pneumoniae; K. pneumoniae No. 42 (Test Example 3); read-out: MIC
Description: as §1, §2, §3

P. vulugaris OX-19 = assay: MIC against standard strains (Test Example 3); settings: P. vulugaris OX-19 (Test Example 3); read-out: MIC
Description: as §1, §2, §3

S. epidemidis IAM1296 = assay: MIC against standard strains (Test Example 3); settings: S. epidemidis IAM1296 (Test Example 3); read-out: MIC
Description: as §1, §2, §3

E. coli CSH2 (RK1) = assay: MIC against standard strains (Test Example 3); settings: Escherichia coli
Description: as §1, §2, §3

P. aeruginosa NCTC10490 = assay: MIC against standard strains (Test Example 3); settings: Pseudomonas aeruginosa; P. aeruginosa NCTC10490 (Test Example 3); read-out: MIC
Description: as §1, §2, §3

S. aureus 209p JC-1 = assay: MIC against standard strains (Test Example 3); settings: Staphylococcus aureus; S. aureus 209p JC-1 (Test Example 3); read-out: MIC
Description: as §1, §2, §3

[1] = tested on: Escherichia coli CSH2 (RE45); assay: MIC against standard strains (Test Example 1)
Description: as §1
(§4) Staphylococcus aureus 167 and Staphylococcus aureus 195 used in the test were MRSA. CTM (cefotiam) and FMOX (flomoxef) were used as control agents.

[2] = tested on: Enterobacter cloacae ATCC 13407; assay: MIC against standard strains (Test Example 1); settings: ATCC13407, Muller-Hinton agar, 37°C overnight
Description: as §1, §4

[3] = tested on: Citrobacter freundii ATCC 8090; assay: MIC against standard strains (Test Example 1); settings: ATCC8090, Muller-Hinton agar, 37°C overnight
Description: as §1, §4

[4] = tested on: Staphylococcus aureus 195; assay: MIC against standard strains (Test Example 1); settings: Staphylococcus aureus 195 (MRSA); Muller-Hinton agar, 37°C overnight
Description: as §1, §4

[5] = tested on: Pseudomonas aeruginosa NCTC 10490; assay: MIC against standard strains (Test Example 1); settings: NCTC10490, Muller-Hinton agar, 37°C overnight
Description: as §1, §4

[6] = tested on: Staphylococcus aureus Smith; assay: MIC against standard strains (Test Example 1); settings: Muller-Hinton agar, 37°C overnight
Description: as §1, §4

[7] = tested on: Staphylococcus aureus 167; assay: MIC against standard strains (Test Example 1); settings: Staphylococcus aureus 167 (MRSA); Muller-Hinton agar, 37°C overnight
Description: as §1, §4

[8] = tested on: Escherichia coli CSH2 (RK1); assay: MIC against standard strains (Test Example 1)
Description: as §1, §4

[9] = tested on: Staphylococcus epidermidis IAM 1296; assay: MIC against standard strains (Test Example 1); settings: IAM1296, Muller-Hinton agar, 37°C overnight
Description: as §1, §4

[10] = tested on: Klebsiella pneumoniae No. 42; assay: MIC against standard strains (Test Example 1); settings: Muller-Hinton agar, 37°C overnight
Description: as §1, §4

Proteus vulgalis OX-19 = assay: MIC against standard strains (Test Example 1); settings: Muller-Hinton agar, 37°C overnight
Description: as §1, §4

[11] = tested on: Serratia marcescens IAM 1184; assay: MIC against standard strains (Test Example 1); settings: IAM1184, Muller-Hinton agar, 37°C overnight
Description: as §1, §4

[12] = tested on: Bacillus subtilis ATCC 6633; assay: MIC against standard strains (Test Example 1); settings: ATCC6633, Muller-Hinton agar, 37°C overnight
Description: as §1, §4

[13] = tested on: Staphylococcus aureus 209P JC-1; assay: MIC against standard strains (Test Example 1); settings: Muller-Hinton agar, 37°C overnight
Description: as §1, §4

[14] = tested on: Morganella morganii IFO 3848; assay: MIC against standard strains (Test Example 1); settings: IFO3848, Muller-Hinton agar, 37°C overnight
Description: as §1, §4

[15] = tested on: Psuedomonas aeruginosa IFO 3445; assay: MIC against standard strains (Test Example 1); settings: Muller-Hinton agar, 37°C overnight
Description: as §1, §4

[16] = tested on: Klebsiella pneumoniae IFO 3317; assay: MIC against standard strains (Test Example 1); settings: IFO3317, Muller-Hinton agar, 37°C overnight
Description: as §1, §4

[17] = tested on: Escherichia coli NIHJ JC-2; assay: MIC against standard strains (Test Example 1); settings: NIHJJC2, Muller-Hinton agar, 37°C overnight
Description: as §1, §4

[18] = tested on: Micrococcus luteus ATCC 9341; assay: MIC against standard strains (Test Example 1); settings: ATCC9341, Muller-Hinton agar, 37°C overnight
Description: as §1, §4

[19] = tested on: Proteus mirabilis IFO 3849; assay: MIC against standard strains (Test Example 1); settings: IFO3849, Muller-Hinton agar, 37°C overnight
Description: as §1, §4

Molecule `CN(C)CCn1nnnc1SCC1=C(C(=O)O)N2C(=O)[C@@H](NC(=O)Cc3csc(N)n3)[C@H]2SC1` [CTM, cefotiam, reference compound] has an MIC (S. aureus Smith) of 0.39 µg/mL (≈ 0.742 µM), an MIC (C. freundii ATCC8090) of 0.78 µg/mL (≈ 1.48 µM) and an MIC (A. calcoaceticos T59) of 100 µg/mL (≈ 190 µM). The MIC (M. luteus ATCC 9341) was 0.39 µg/mL (≈ 0.742 µM), the MIC (K. pneumoniae IFO3317) was 0.05 µg/mL (≈ 0.0951 µM) and the MIC (S. marcescens IAM1184) was 1.56 µg/mL (≈ 2.97 µM). It also gave an MIC (B. subtilis ATCC6633) of 0.2 µg/mL (≈ 0.38 µM), an MIC (A. faecalis ATCC3750) of 1.56 µg/mL (≈ 2.97 µM) and an MIC (M. Morganii IFO3848) of 0.1 µg/mL (≈ 0.19 µM). For the same molecule, the MIC (E. coli NIHJ JC-2) was 0.1 µg/mL (≈ 0.19 µM), the MIC (P. mirabilis IFO3849) was 0.39 µg/mL (≈ 0.742 µM) and the MIC (S. aureus 167) was 100 µg/mL (≈ 190 µM). For the same molecule, the MIC (E. coli CSH2 (RE45)) was 0.1 µg/mL (≈ 0.19 µM), the MIC (E. cloacae ATCC13407) was 3.13 µg/mL (≈ 5.95 µM) and the MIC (S. aureus 195) was greater than 100 µg/mL. For the same molecule, the MIC (K. pneumoniae No. 42) was 0.39 µg/mL (≈ 0.742 µM), the MIC (P. vulugaris OX-19) was 0.39 µg/mL (≈ 0.742 µM) and the MIC (S. epidemidis IAM1296) was 0.2 µg/mL (≈ 0.38 µM). For the same molecule, the MIC (E. coli CSH2 (RK1)) was 0.1 µg/mL (≈ 0.19 µM), the MIC (P. aeruginosa NCTC10490) was greater than 100 µg/mL and the MIC (S. aureus 209p JC-1) was 0.39 µg/mL (≈ 0.742 µM). It also gave an MIC [1] of 0.2 µg/mL (≈ 0.38 µM), an MIC [2] of 50 µg/mL (≈ 95.1 µM) and an MIC [3] of 0.78 µg/mL (≈ 1.48 µM). For the same molecule, the MIC [4] was greater than 100 µg/mL, the MIC [5] was greater than 100 µg/mL and the MIC [6] was 0.39 µg/mL (≈ 0.742 µM). It also gave an MIC [7] greater than 100 µg/mL, an MIC [8] of 0.2 µg/mL (≈ 0.38 µM) and an MIC [9] of 0.2 µg/mL (≈ 0.38 µM). For the same molecule, the MIC [10] was 0.39 µg/mL (≈ 0.742 µM), the MIC (Proteus vulgalis OX-19) was 0.39 µg/mL (≈ 0.742 µM) and the MIC [11] was 3.13 µg/mL (≈ 5.95 µM). For the same molecule, the MIC [12] was 0.2 µg/mL (≈ 0.38 µM), the MIC [13] was 0.2 µg/mL (≈ 0.38 µM) and the MIC [14] was 0.1 µg/mL (≈ 0.19 µM). For the same molecule, the MIC [15] was greater than 100 µg/mL, the MIC [16] was 0.1 µg/mL (≈ 0.19 µM) and the MIC [17] was 0.1 µg/mL (≈ 0.19 µM). For the same molecule, the MIC [18] was 0.39 µg/mL (≈ 0.742 µM) and the MIC [19] was 0.39 µg/mL (≈ 0.742 µM).
